Where two headings read alike, the source gives them in different places. Where a SMILES comes first, the peptide text is derived from it. Where no end group is shown, it is not given here.
Assays:
[1] = tested on: immune system of healthy rats; experiment: Immune indicators of SD rats after one month of administration (Example 4); assay type: in vivo, rat; conditions: once a day for 4 weeks, end of administration
Protocol: SD rats were used to investigate the effects of the SE-DR affinity peptides on the immune indicators of the rats after continuous administration for one month. […] At the end of administration, analysis was conducted on the serum anti-FNS007 antibodies, different types of serum immunoglobulins, the serum complement, the peripheral blood T lymphocyte and the serum cytokines.

PBMC = PBMC stimulation test, IL-6 in supernatant by ELISA; assay type: cell-based, human; conditions: PBMC 1×10^6 cell/ml, peptide 10 μg/ml, 5 days of culture
From the text: The SE-DR molecule is directly related to the pathogenesis of RA. It can present RA-related autoantigens in vivo, such as type II collagen (CII), heat shock protein 60 (Hsp60), cartilage glycoprotein (HCgp-39) and so on, and further activate autoreactive T cells, leading to the occurrence of rheumatoid arthritis. An important strategy for the treatment of RA is to use competitive inhibition to block the activation of autoreactive T cells by autoantigen peptides. […] Based on the above principles, we have designed and synthesized a series of altered peptide ligands, and screened for their affinity to SE-DR and for the activation ability on the peripheral blood T cells in RA patients. The specific steps and results are shown in Example 1 and Example 2.
3 mL ficoll was added to a 15 mL centrifuge tube, and 4 mL blood sample was then applied on the surface of ficoll. The tube was centrifuged at 400 g at 18-20° C. for 30-40 min. The upper layer of plasma was aspirated with a Pasteur pipette, and the PBMC layer (approximately 2 mL) was aspirated, and added to a 14 mL centrifuge tube previously filled with at least 3 volumes (6 mL) of PBS. The mixture was gently resuspended. The tube was centrifuged at 60-100 g for 10 min at 18-20° C. After centrifugation, the supernatant was removed with a Pasteur pipette, and the resulting cell mass was resuspended in 6-8 mL PBS and centrifuged at 18-20° C. for 10 min at 60-100 g to remove the supernatant. The cells were resuspended in an appropriate amount of 1640 complete medium and diluted to 1×10^6 cell/ml after cell counting. The diluted cell suspension was added to a 96-well plate. The positive control, allosteric peptide, was added to 100 μl cell culture to a final concentration of 10 μg/ml. The mixture was replenished to 200 μL with 1640 complete medium. After 5 days of culture, the supernatant was aspirated, centrifuged at 3000 rpm for 5 minutes, and the level of IL-6 in the supernatant was detected by ELISA.

[2] = tested on: CIA mice infected with chronic hepatitis B; experiment: CIA mice infected with chronic hepatitis B (Example 8); assay type: in vivo, mouse; conditions: for ALT level / Hepatitis B activation rate (Ratio of ALT > 100 U/L): at sacrifice, day 28; for Observation on the daily condition of mice: during administration; for Inflammation score and area under the time curve (AUC): peptides 50 μmol, Abatacept 100 μg, tail i.v. once every other day for 27 days
Protocol: Establishment of chronic hepatitis B model in mice: DBA/1 mice were injected with Raav8-1. 3 HBV (1×10^12 vg/mL) via tail vein to establish HBV chronic hepatitis B model.
DBA/1 mice infected with chronic hepatitis B were used to establish CIA model with chronic hepatitis B infection. Methods: Two days after the mice were injected with Raav8-1.3 HBV (1×10^12 vg/mL) via tail vein, the emulsion of bovine C II and CFA (containing 100 μg collagen) was intradermally injected into the tail head of the mice for immunization. After 21 days, the mice were boosted once by intraperitoneal injection of the emulsion (containing 100 μg collagen) prepared by bovine C II and IFA. Thereafter, the morphological changes of the four paws of the mice were examined every day, and the mice were randomly assigned to the treatment group at inflammation score of 1. […] Another 10 mice with latent hepatitis B infection were not subjected to model establishment and set as the control group. PBS was administrated to both the model group and the control group. The mice in each group were given the corresponding drugs by tail intravenous injection at the volume of 10 ml/kg, once every other day, for 27 consecutive days. The mice were sacrificed on day 28 after administration. The inflammation scores of the four paws of the mice in each group were evaluated during the administration. The serological indicators for virus injection and liver function of the mice were detected on the day of booster immunization (22 days after tail vein injection) and at the time of sacrifice.

CIA rats [3] = experiment: CIA rat model: inflammation score AUC and peripheral blood T-cell subtypes (Example 3); assay type: in vivo; conditions: 0.2 mmol; for Inflammation score and area under the time curve (AUC): female Lewis CIA rats, tail vein once every other day for 15 days; for Th1 (%) / Th2 (%) / Th17 (%) / Treg (%): peripheral blood, […] after end of administration, flow cytometry
Protocol: Collagen-induced arthritis (CIA) model was established by intradermal injection of the emulsion formulated using type II bovine collagen (CII) together with incomplete Freund's adjuvant (IFA) into the tail head of a female Lewis rat. After the model establishment, the morphological changes of rats' four paws were examined every day. […] Except for the model group, the dosage of polypeptide was all set as 0.2 mmol. A control group was also set up, in which the drug was injected into the tail vein once every other day for […]. The area under the curve (AUC) of the inflammation score was used for the efficacy analysis from the day the rats were enrolled, once every other day, until the end of administration.

[4] = tested on: immune system of healthy monkeys; experiment: Immune indicators of cynomolgus monkeys after one month of administration (Example 5); assay type: in vivo, cynomolgus monkey; conditions: once a day for 4 weeks, end of administration
From the text: Cynomolgus monkeys were used to investigate the effects of the SE-DR affinity peptide on the immune indicators of cynomolgus monkeys after continuous administration for one month. […] At the end of administration, the immune indicators, including the serum anti-FNS007 antibodies, the immunoglobulins of different serotypes, the serum complement, the peripheral blood T lymphocyte and the serum cytokines, were observed.

[5] = tested on: CIA rats with latent tuberculosis infection; conditions: for Observation on the daily condition of rats: during administration; for Tuberculosis recurrence rate / Inflammation score and area under the time curve (AUC) / Culture of MTB from lungs and spleens of rats at sacrifice: peptides 0.2 mmol, adalimumab 1 mg/kg; for Tuberculosis recurrence rate: 21 days; for Inflammation score and area under the time curve (AUC): tail i.v. once every other day for 21 days; for Culture of MTB from lungs and spleens of rats at sacrifice: sacrifice on day 22
CIA rats [6] = assay type: in vivo, rat
From the text: Female Lewis rats were used to establish CIA model. Methods: The rats were immunized by intradermal injection with the emulsion prepared by bovine C II and IFA at the tail head. After 7 days, the rats were boosted once with the same method. Thereafter, the morphological changes of the four paws of the rats were examined every day. […] Another 8 female Lewis rats were not subjected to model establishment and set as the control group. PBS was administrated to both the model group and the control group. […] The inflammation scores of the four paws of the rats in each group were evaluated during the administration (once every other day), and the area under the curve (AUC) of the inflammation score was calculated during the administration. During drug discontinuation, the inflammation scores of the four paws of the rats in each group were continuously evaluated (once every other day), and the rats were sacrificed on day 22 after drug discontinuation. HE staining was performed on the ankle joint for tissue injury evaluation. The specific scoring criteria were as follows: 0=normal synovial tissue; 1=synovial hyperplasia and inflammatory cell infiltration; 2=pannus formation and cartilage erosion; 3=destruction of most of the cartilage with subchondral bone erosion; 4=loss of joint integrity, ankylosis.

[7] = inflammation score AUC, FNS007 0.2 mmol, adalimumab 1 mg/kg, i.v. once every other day

Row | Compound | CD3% [1] | CD4% [1] | CD8% [1] | IFN-γ [1] | IL-2 [1] | IL-4 [1] | TNF-α [1] | IL-6 levels in the supernatant (PBMC) | ALT level [2] | Observation on the daily condition of mice [2] | Inflammation score and area under the time curve (AUC) [2] | Inflammation score and area under the time curve (AUC) (CIA rats [3]) | Th1 (%) (CIA rats [3]) | Th2 (%) (CIA rats [3]) | Th17 (%) (CIA rats [3]) | Treg (%) (CIA rats [3]) | Observation on the daily condition of rats [5] | Tuberculosis recurrence rate [5] | Inflammation score and area under the time curve (AUC) [5] | Culture of MTB from lungs and spleens of rats at sacrifice [5] | also measured
1 | CC[C@H](C)[C@H](N)C(=O)N[C@@H](Cc1c[nH]c2ccccc12)C(=O)N[C@@H](Cc1ccc(O)cc1)C(=O)N[C@H](C(=O)N[C@@H](CO)C(=O)N[C@@H](CS)C(=O)N[C@@H](Cc1ccccc1)C(=O)NCC(=O)N[C@@H](CS)C(=O)N[C@@H](CCC(=O)O)C(=O)N[C@H](C(=O)N[C@@H](Cc1c[nH]cn1)C(=O)N[C@@H](C)C(=O)N[C@@H](CCSC)C(=O)N[C@@H](CC(C)C)C(=O)O)[C@@H](C)O)[C@@H](C)CC [APL9] (H-IWYISCFGCETHAML-OH; N-terminus and C-terminus assumed) | 36.08 ± 12.9% | 20.45 ± 8.45% | 17.10 ± 8.82% | 2.35 ± 0.27 pg/mL | 3.03 ± 1.05 pg/mL | 1.95 ± 0.95 pg/mL | 4.79 ± 1.08 pg/mL | 2.8 ng/mL | 47.55 ± 18.78 U/L | No abnormality | 97.63 ± 50.13 | 57.39 ± 39.33 | 0.20 ± 0.05 % | 4.27 ± 0.53% | 0.95 ± 0.12 % | 5.35 ± 0.84 % | No abnormality | 0% | 54.49 ± 33.12 | Negative | Hepatitis B activation rate (Ratio of ALT > 100 U/L) [2]: 0%; CD3% [4]: 66.91 ± 11.93%; CD4% [4]: 28.67 ± 14.78%; CD8% [4]: 28.67 ± 14.78%; IFN-γ [4]: 5.01 ± 0.69 pg/mL; IL-2 [4]: 4.60 ± 0.55 pg/mL; IL-4 [4]: 2.24 ± 0.12 pg/mL; TNF-α [4]: 2.38 ± 0.24 pg/mL
2 | MGPKGRTVIIEQSLGSPKVTK [APL21] | 38.16 ± 8.98% | 18.72 ± 5.85% | 19.06 ± 5.4% | 2.64 ± 0.37 pg/mL | 3.36 ± 1.45 pg/mL | 2.32 ± 1.37 pg/mL | 5.25 ± 1.28 pg/mL | 4.2 ng/mL | 48.29 ± 21.24 U/L | No abnormality | 95.71 ± 51.88 | 59.44 ± 38.29 | 0.19 ± 0.08 % | 4.23 ± 0.47% | 0.98 ± 0.10% | 5.14 ± 0.90 % | No abnormality | 0% | 53.06 ± 37.25 | Negative | Hepatitis B activation rate (Ratio of ALT > 100 U/L) [2]: 0%; CD3% [4]: 66.16 ± 4.34%; CD4% [4]: 23.43 ± 8.46%; CD8% [4]: 23.43 ± 8.46%; IFN-γ [4]: 5.03 ± 0.22 pg/mL; IL-2 [4]: 4.18 ± 0.41 pg/mL; IL-4 [4]: 1.90 ± 0.15 pg/mL; TNF-α [4]: 2.16 ± 0.14 pg/mL
3 | YAKQATLALA [APL7] | 36.69 ± 17^ % | 18.29 ± 9.08% | 18.66 ± 8.61% | 2.33 ± 0.29 pg/mL | 3.06 ± 0.97 pg/mL | 2.55 ± 1.30 pg/mL | 5.42 ± 1.23 pg/mL | 3.7 ng/mL | 48.53 ± 20.09 U/L | No abnormality | 96.19 ± 48.25 | 60.48 ± 37.31 | 0.17 ± 0.10 % | 4.38 ± 0.81 % | 0.92 ± 0.08% | 5.22 ± 0.77 % | No abnormality | 0% | 55.93 ± 29.87 | Negative | CD3% [4]: 61.83 ± 11.98%; CD4% [4]: 26.23 ± 7.31%; CD8% [4]: 23.72 ± 6.35%; IFN-γ [4]: 5.27 ± 0.59 pg/mL; IL-2 [4]: 4.24 ± 0.34 pg/mL; IL-4 [4]: 2.04 ± 0.19 pg/mL; TNF-α [4]: 2.44 ± 0.22 pg/mL
4 | adalimumab | – | – | – | – | – | – | – | – | – | – | – | – | – | – | – | – | obvious toxicity symptoms such as piloerection and reduced activity | 60% | 50.42 ± 27.13 | 6/10 Positive | inflammation score during drug discontinuation compared with that at the time of drug discontinuation (CIA rats [6]; 21 days of observation after stopping at day 21): significantly increased; Pathological score during 21 days of drug discontinuation (CIA rats [6]; HE staining of ankle joint, score 0-4): 2.69 ± 0.80; AUC, during drug discontinuation (day 22-42) (CIA rats [6]; inflammation score AUC after stopping administration at day 21): 96.85 ± 26.51; AUC, during administration (day 1-21) (CIA rats [6]; [7]): 54.51 ± 22.72; AUC, the first week during administration (CIA rats [6]; [7]): 13.93 ± 4.81; AUC, during administration (day 1-21) (CIA rats [6]; inflammation score AUC, FNS007 0.2 mmol, adalimumab 1 mg/kg, i.v. once every other day, listed as adalimumab): 54.51; Incidence of infection in rats (CIA rats [6]; rat, in vivo): 10%; Observation on the daily state of rats (CIA rats [6]; rat, in vivo): Piloerection, epistaxis, prostration, reduced activity, etc.; Tuberculosis recurrence rate ([5]; listed as adalimumab): 60%; Inflammation score and area under the time curve (AUC) ([5]; listed as adalimumab): significantly reduce the inflammation score; Culture of MTB from lungs and spleens of rats at sacrifice ([5]; listed as adalimumab): positive in 6/10 rats

— patent US20250074946A1, “USE OF SE-DR AFFINITY PEPTIDE IN PREPARING DRUG FOR TREATING RHEUMATIC DISEASE” (HEBEI FITNESS BIOTECHNOLOGY CO., LTD., priority 2021, published 2025)
